From US12611411B2, “Triple-agent therapy for cancer treatment” (CYTOMETRIC THERAPEUTICS, INC., priority 2021, dated 2026) come the findings set out here.

Assay [1] concerns live cancer cell cultures. Put plainly: Cytometric testing of the patient's cancer cells. In kind it is cell-based, human. The settings on record: for activity in cytometric testing: Example 14, incompletely resected pancreatic cancer; for sensitivity in cytometric testing: Example 18, ascites of metastatic carcinoma of the urachus. An excerpt:
Also disclosed are methods for in vitro testing a drug combination on cancer cells of a subject for cancer cell survival, wherein the drug combination comprises tamoxifen, gefitinib, and vinorelbine. The in vitro testing can comprise administering tamoxifen and gefitinib prior to, together with, and/or after, administering vinorelbine. The in vitro testing can comprise measuring the cancer cell survival. Suitable in vitro tests and methods for measuring the cancer cell survival include Differential Staining Cytotoxicity Assay (DiSC), MTT assay, ATP assay, and fluorescein diacetate assay (FDA). MTT assay is a colorimetric assay for assessing cell metabolic activity. Cellular enzymes are capable of reducing the tetrazolium dye MTT 3-(4,5-dimethylthiazol-2-yl)-2,5-diphenyltetrazolium bromide to its insoluble formazan, which has a purple color. ATP assays are procedures that can measure cell viability based on detection of ATP. All living cells, including bacteria, can be detected with ATP assays. Several detection methods can be used, such as colorimetric, fluorescent and bioluminescent. FDA uses a cell-permeant esterase substrate fluorescein diacetate that can serve as a viability probe and that measures both enzymatic activity, which is required to activate its fluorescence, and cell-membrane integrity, which is required for intracellular retention of their fluorescent product.
Use of tamoxifen at a high dose of 80 milligrams per meter squared (the typical dose in conventional cancer treatment is 20 mg daily) and high dose of gefitinib (187 milligrams per meter squared twice daily for 3 days—the typical dose in conventional cancer treatment is 250 mg daily) has been found in cytometric testing using live cancer cell cultures to transport vinorelbine into the cancer cell, producing extraordinary synergy in causing programmed apoptosis in the cancer cells (programmed cancer cell death) while sparing much of the normal tissues and giving dramatic clinical outcomes.

In assay [2] the test system is squamous cell carcinoma of the breast. Put plainly: TGV therapy case study, triple-negative squamous cell carcinoma of the breast (Example 11). The settings on record: person, before TGV. In kind it is in vivo, human. The text has this:
(§1) The 17 case studies represent patients with metastatic esophageal cancer, metastatic skin cancer, metastatic breast cancer, leptomeningeal breast cancer, metastatic prostate cancer, glioblastoma multiforme, lung cancer, bowel cancer, acute myelogenous leukemia, esthesioneuroblastoma, and urothelial cancer.

A further assay relates to urothelial cancer. Put plainly: TGV therapy case study, urothelial cancer (Example 17). In kind it is in vivo, human. As to conditions: person, before TGV (MVAC together with radiation therapy). Here is the method:
as §1
A person with regionally advanced bladder cancer was presented with urothelial cancer in the trigone of their bladder. The patient was treated with radiation therapy and with dose dense MVAC (M—methotrexate, V—vinblastine, A—doxorubicin, C—Cisplatin). […] The patient was then treated with gemcitabine and cisplatin to which they had no response. The patient then had the retroperitoneal lymph nodes radiated to a complete response. The patient was followed monthly and when recurrent disease was discovered in the lung and mediastinum, they were started on Padcev® (Enfortumab vedotin), to which they had no response. The patient was then offered TGV. […] The patient had neutropenia within five days and was admitted. […] It was concluded that the patient should not be given repeated chemotherapy until their bone marrow had recovered.

With `O=c1[nH]cc(F)c(=O)[nH]1` [5-fluorouracil], the “activity in cytometric testing” value in assay [1] is listed as “no evidence of response”. As to `COc1cccc2c1C(=O)c1c(O)c3c(c(O)c1C2=O)C[C@@](O)(C(=O)CO)C[C@@H]3O[C@H]1C[C@H](N)[C@H](O)[C@H](C)O1` [Adriamycin], in assay [2], the “response to prior chemotherapy” value is reported as “refractory”. Turning to `O=P1(N(CCCl)CCCl)NCCCO1` (stereo not shown) [Cytoxan], the “response to prior chemotherapy” value in assay [2] is reported as “refractory”. As to `CC(=O)O[C@@]12CO[C@@H]1C[C@H](O)[C@@]1(C)C(=O)[C@H](O)C3=C(C)[C@@H](OC(=O)[C@H](O)[C@@H](NC(=O)OC(C)(C)C)c4ccccc4)C[C@@](O)([C@@H](OC(=O)c4ccccc4)[C@H]21)C3(C)C` [Taxotere], the “activity in cytometric testing” value in assay [1] is recorded as “no evidence of response”. Also, in assay [2], the “response to prior chemotherapy” value is recorded as “refractory”. Turning to `Nc1ccn([C@@H]2O[C@H](CO)[C@@H](O)C2(F)F)c(=O)n1` [gemcitabine], in assay [1], the “activity in cytometric testing” value is “no evidence of response” and the “sensitivity in cytometric testing” value is listed as “hypersensitivity”.

With `O=C1[O][Pt]2([NH][C@@H]3CCCC[C@H]3[NH]2)[O]C1=O` [oxaliplatin], in assay [1], the “activity in cytometric testing” value was “no evidence of response” and the “sensitivity in cytometric testing” value is recorded as “hypersensitivity”.

For Enfortumab vedotin [Padcev®], the “response to prior therapy” value in the assay on urothelial cancer was “no response”.
